Laboratory results published in ChEMBL document CHEMBL1155594, “Absolute configuration and antiprotozoal activity of minquartynoic acid” (J Nat Prod, 2000).
≈ marks a conversion by molar mass, not a printed value.

Tests used:
Plasmodium falciparum = experiment: Antiplasmodial activity against chloroquine-sensitive Plasmodium falciparum 3D7; type: functional, organism-based
Leishmania major = experiment: Antileishmanial activity against Leishmania major promastigotes after 20 hrs; type: functional, organism-based
[1] = Inhibition of phytohemagglutininin A-induced proliferation in human lymphocytes assessed as radiolabeled thymidine uptake; type: cell-based; conditions: Lymphocyte

Question: What does the source list for `C[C@H](O)C#CC#CC#CC#CCCCCCCCC(=O)O` [MINQUARTYNOIC ACID]?
Answer: IC50 (Plasmodium falciparum): 3 µg/mL (≈ 10.6 µM); IC50 (Leishmania major): 1.4 µg/mL (≈ 4.92 µM); IC50 [1]: 5.3 µg/mL (≈ 18.6 µM)
